For 34 compounds, Ki results are on record in US20090215857A1 (Pfizer Products Inc., priority 2005, published 2009).

Molecules are shown by their SMILES. Where a name gives a salt, the structure may show the parent alone.

For experiment [1], the target named is T1, human norepinephrine transporter (Homo sapiens, UniProt P23975).
T1 construct: expressed in transfected cells; host or cells: HEK-293
As to the kind of experiment: hNET receptor binding ([125I]-RTI-55 radioligand). Conditions: membranes of HEK-293 cells transfected with human norepinephrine transporter cDNA; 50 pM [125I]-RTI-55; IC50 converted by Cheng-Prusoff; read-out: NET Ki. The protocol:
Cell pastes of HEK-293 cells transfected with a human norepinephrine transporter cDNA were prepared. The cell pastes were resuspended in 400 to 700 ml of Krebs-HEPES assay buffer (25 mM HEPES, 122 mM NaCl, 3 mM KCl, 1.2 mM MgSO4, 1.3 mM CaCl2, and 11 mM glucose, pH 7.4) with a Polytron homogenizer at setting 7 for 30 seconds. Aliquots of membranes (5 mg/ml protein) were stored in liquid nitrogen until used.
The binding assay was set up in Beckman deep-well polypropylene plates with a total volume of 250 μl containing: test compound (10^−5M to 10^−12M), cell membranes, and 50 pM [^125I]-RTI-55 (Perkin Elmer, NEX-272; specific activity 2200 Ci/mmol). The reaction was incubated by gentle agitation for 90 minutes at room temperature and was terminated by filtration through Whatman GF/C filter plates using a Brandel 96-well plate harvester. Scintillation fluid (100 μl) was added to each well, and bound [^125I]-RTI-55 was determined using a Wallac Trilux Beta Plate Counter. Test compounds were run in duplicate, and specific binding was defined as the difference between binding in the presence and absence of 10 μM desipramine.
Excel and GraphPad Prism software were used for data calculation and analysis. IC50 values were converted to K, values using the Cheng-Prusoff equation.

Experiment [2] has as its target T2, human serotonin transporter (Homo sapiens, UniProt P31645).
T2 construct: expressed in transfected cells; host or cells: HEK-293
The experiment can be described thus: hSERT receptor binding ([125I]-RTI-55 radioligand). Conditions: membranes of HEK-293 cells transfected with human serotonin transporter cDNA; 50 pM [125I]-RTI-55; IC50 converted by Cheng-Prusoff; read-out: SERT Ki. The protocol:
Cell pastes of HEK-293 cells transfected with a human serotonin transporter cDNA were prepared. The cell pastes were resuspended in 400 to 700 ml of Krebs-HEPES assay buffer (25 mM HEPES, 122 mM NaCl, 3 mM KCl, 1.2 mM MgSO4, 1.3 mM CaCl2, and 11 mM glucose, pH 7.4) with a Polytron homogenizer at Setting 7 for 30 seconds. Aliquots of membranes (˜2.5 mg/ml protein) were stored in liquid nitrogen until used.
Assays were set up in FlashPlates pre-coated with 0.1% PEI in a total volume of 250 μl containing: test compound (10^−5M to 10^−12M), cell membranes, and 50 pM [^125I]-RTI-55 (Perkin Elmer, NEX-272; specific activity 2200 Ci/mmol). The reaction was incubated and gently agitated for 90 minutes at room temperature, and terminated by removal of assay volume. Plates were covered, and bound [^125I]-RTI-55 was determined using a Wallac Trilux Beta Plate Counter. Test compounds were run in duplicate, and specific binding was defined as the difference between binding in the presence and absence of 10 μM citalopram.
Excel and GraphPad Prism software were used for data calculation and analysis. IC50 values were converted to Ki values using the Cheng-Prusoff equation.

T2 sequence (P31645 whole entry): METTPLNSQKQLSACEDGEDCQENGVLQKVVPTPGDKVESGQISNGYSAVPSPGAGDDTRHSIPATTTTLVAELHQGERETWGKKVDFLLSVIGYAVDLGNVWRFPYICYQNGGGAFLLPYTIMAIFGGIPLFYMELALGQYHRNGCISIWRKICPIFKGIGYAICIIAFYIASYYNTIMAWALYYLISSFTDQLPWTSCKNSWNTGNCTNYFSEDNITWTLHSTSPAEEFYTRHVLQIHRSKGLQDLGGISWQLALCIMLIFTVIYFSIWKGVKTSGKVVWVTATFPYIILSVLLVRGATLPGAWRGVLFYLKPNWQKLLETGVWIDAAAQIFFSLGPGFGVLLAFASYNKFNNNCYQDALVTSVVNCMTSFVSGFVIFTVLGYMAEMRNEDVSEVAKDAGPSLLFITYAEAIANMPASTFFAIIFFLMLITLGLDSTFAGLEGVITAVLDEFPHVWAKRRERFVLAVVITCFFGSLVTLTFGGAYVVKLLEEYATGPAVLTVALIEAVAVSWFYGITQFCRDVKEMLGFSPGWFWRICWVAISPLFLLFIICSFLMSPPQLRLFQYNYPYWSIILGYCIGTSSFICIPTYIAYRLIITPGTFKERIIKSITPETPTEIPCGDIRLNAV
T1 sequence (P23975 whole entry): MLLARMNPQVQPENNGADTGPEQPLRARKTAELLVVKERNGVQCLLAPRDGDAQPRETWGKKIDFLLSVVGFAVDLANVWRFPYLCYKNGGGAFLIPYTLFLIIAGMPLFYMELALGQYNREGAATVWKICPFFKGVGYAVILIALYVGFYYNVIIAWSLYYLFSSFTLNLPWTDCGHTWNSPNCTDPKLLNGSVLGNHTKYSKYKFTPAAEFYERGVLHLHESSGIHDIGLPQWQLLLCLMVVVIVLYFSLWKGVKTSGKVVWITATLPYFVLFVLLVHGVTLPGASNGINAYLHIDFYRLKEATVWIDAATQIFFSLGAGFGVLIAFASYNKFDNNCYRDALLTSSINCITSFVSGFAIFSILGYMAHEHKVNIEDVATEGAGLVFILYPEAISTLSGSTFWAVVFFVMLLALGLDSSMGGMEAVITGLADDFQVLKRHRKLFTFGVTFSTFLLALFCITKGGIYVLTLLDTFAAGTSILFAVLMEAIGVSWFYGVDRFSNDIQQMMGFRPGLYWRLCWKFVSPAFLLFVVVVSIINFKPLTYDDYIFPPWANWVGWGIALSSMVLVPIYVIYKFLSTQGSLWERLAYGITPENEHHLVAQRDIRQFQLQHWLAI

On to `FC(F)(F)Oc1ccccc1-c1ccccc1CO[C@H]1CCNC1` [Example D-37, (S)-3-(2′-Trifluoromethoxy-biphenyl-2-ylmethoxy)-pyrrolidine], for which the inhibition constant Ki (as a rule, a measure of affinity in units of concentration, obtained from inhibition or displacement) in experiment [1] amounted to 1000 nM; in experiment [2], 5650 nM.

As to `CC(=O)c1ccc(-c2ccc(F)cc2CO[C@H]2CCNC2)cc1` [Example D-78, (S)-1-[4′-Fluoro-2′-(pyrrolidin-3-yloxymethyl)-biphenyl-4-yl]-ethanone], the values for the inhibitory constant (Ki) in experiment [1] and in experiment [2] were 6870 nM and 444 nM, respectively.

Turning to `c1ccc(-c2ccc3c(c2)OCCO3)c(CO[C@H]2CCNC2)c1` [Example D-46], the inhibitory constant (Ki) in experiment [1] was determined as 3880 nM; in experiment [2], 3760 nM.

`Fc1ccc(-c2ccccc2CO[C@H]2CCNC2)cc1` [Example A-8, (S)-3-(4′-Fluoro-biphenyl-2-ylmethoxy)-pyrrolidine maleate]: the Ki in experiment [1] is 15.3 nM; in experiment [2], 20.5 nM.

On to `CCS(=O)(=O)c1ccc(-c2ccccc2CO[C@H]2CCNC2)cc1` [Example D-58, (S)-3-(4′-Ethanesulfonyl-biphenyl-2-ylmethoxy)-pyrrolidine], for which the Ki in experiment [1] was at least 10000 nM; in experiment [2], 3030 nM.

For `Fc1ccc(-c2ccccc2OCc2ccccc2)c(CO[C@H]2CCNC2)c1` [Example D-97, (S)-3-(2′-Benzyloxy-4-fluoro-biphenyl-2-ylmethoxy)-pyrrolidine], the Ki in experiment [1] is 148 nM; in experiment [2], 286 nM.

Consider `Fc1cc(F)cc(-c2ccc(F)cc2CO[C@H]2CCNC2)c1` [Example D-86, (S)-(4,3′,5′-Trifluoro-biphenyl-2-ylmethoxy)-pyrrolidine], for which the inhibitory constant (Ki) in experiment [1] was found to be 278 nM; in experiment [2], 76.2 nM.

Consider `Fc1ccc(-c2ncccc2CO[C@H]2CCNC2)c(F)c1` [Example B-1, (S)-2-(2,4-Difluoro-phenyl)-3-(pyrrolidin-3-yloxymethyl)-pyridine fumarate], for which the Ki in experiment [1] was 1020 nM; in experiment [2], 5650 nM.

As to `Fc1cccc(-c2ccccc2CO[C@@H]2CCNC2)c1F` [Example A-15, (R)-3-(2′,3′-Difluoro-biphenyl-2-ylmethoxy)-pyrrolidine fumarate], the inhibition constant (Ki) in experiment [1] stood at 80.9 nM; in experiment [2], 185 nM.

Regarding `COc1ccc(C(C)C)cc1-c1ccccc1CO[C@H]1CCNC1` [Example D-49, (S)-(5′-Isopropyl-2′-methoxy-biphenyl-2-ylmethoxy)-pyrrolidine], the Ki was found to be 4230 nM in experiment [1] and 2970 nM in experiment [2].

Take `Fc1ccc(Cl)cc1-c1ccccc1CO[C@H]1CCNC1` [Example D-9, (S)-3-(5′-Chloro-2′-fluoro-biphenyl-2-ylmethoxy)-pyrrolidine]: the Ki in experiment [2] was 71.6 nM.

`N#Cc1ccccc1-c1ccccc1CO[C@H]1CCNC1` [Example D-52]: the inhibition constant Ki in experiment [1] and in experiment [2] was at least 10000 nM each time.

For the compound `Cc1cc(C)cc(-c2ccccc2CO[C@H]2CCNC2)c1` [Example D-27, (S)-3-(3′,5′-Dimethyl-biphenyl-2-ylmethoxy)-pyrrolidine], the Ki in experiment [1] was found to be 295 nM; in experiment [2], 91.9 nM.

`FC(F)(F)Oc1cccc(-c2ccccc2CO[C@H]2CCNC2)c1` [Example D-17, (S)-3-(3′-Trifluoromethoxy-biphenyl-2-ylmethoxy)-pyrrolidine]: the inhibitory constant (Ki) in experiment [1] was found to be 87 nM; in experiment [2], 30.6 nM.

`N#Cc1cccc(-c2ccccc2CO[C@H]2CCNC2)c1` [Example D-53]: the Ki in experiment [1] and in experiment [2] was at least 10000 nM each time.

For the compound `COc1cccc(-c2ccc(F)cc2CO[C@H]2CCNC2)c1F` [Example D-93, (S)-3-(4,2′-Difluoro-3′-methoxy-biphenyl-2-ylmethoxy)-pyrrolidine], the Ki in experiment [1] came out at 1120 nM; in experiment [2], 1450 nM.

As for `Cc1cccc(-c2ccc(F)cc2CO[C@H]2CCNC2)c1C` [Example D-82, (S)-3-(4-Fluoro-2′,3′-dimethyl-biphenyl-2-ylmethoxy)-pyrrolidine], the inhibition constant (Ki) in experiment [1] was found to be 258 nM; in experiment [2], 77.1 nM.

For `Fc1ccc(-c2cc(Cl)cc(Cl)c2)c(CO[C@H]2CCNC2)c1` [Example D-65, (S)-3-(3′,5′-Dichloro-4-fluoro-biphenyl-2-ylmethoxy)-pyrrolidine], the Ki was found to be 265 nM in experiment [1] and 49.7 nM in experiment [2].

As to `CC(C)Oc1ncccc1-c1ccccc1CO[C@H]1CCNC1` [Example D-119, (S)-2-Isopropoxy-3-[2-(pyrrolidin-3-yloxymethyl)-phenyl]-pyridine], the Ki was determined as 963 nM in experiment [1] and 2730 nM in experiment [2].

As for `Fc1ccc(-c2cc(F)ccc2CO[C@H]2CCNC2)c(F)c1` [Example A-23, (S)-(5,2′,4′-Trifluoro-biphenyl-2-ylmethoxy)-pyrrolidine hydrochloride], the values for the inhibition constant Ki in experiment [1] and in experiment [2] were 15.8 nM and 102 nM, respectively.

As to `N#Cc1cccc(-c2cc(F)ccc2F)c1CO[C@H]1CCNC1` [Example E-1, (S)-2′,5′-Difluoro-2-(pyrrolidin-3-yloxymethyl)-biphenyl-3-carbonitrile fumarate], the Ki in experiment [1] worked out at 336 nM; in experiment [2] it was 1120 nM.

Turning to `Clc1ccccc1-c1ccccc1CO[C@H]1CCNC1` [Example D-19, (S)-3-(2′-Chloro-biphenyl-2-ylmethoxy)-pyrrolidine], the inhibitory constant (Ki) in experiment [1] is 108 nM; in experiment [2], 346 nM.

Take `Fc1ccc(-c2ccc(C(F)(F)F)cc2)c(CO[C@H]2CCNC2)c1` [Example D-79, (S)-3-(4-Fluoro-4′-trifluoromethyl-biphenyl-2-ylmethoxy)-pyrrolidine]: the Ki is 6780 nM in experiment [1] and 206 nM in experiment [2].

For the compound `COc1c(C)cc(-c2ccccc2CO[C@H]2CCNC2)cc1C` [Example D-25, (S)-(4′-Methoxy-3′,5′-dimethyl-biphenyl-2-ylmethoxy)-pyrroldine], the inhibition constant Ki stood at 269 nM in experiment [1] and 124 nM in experiment [2].

In the case of `Cc1cc(C)cc(-c2ccc(F)cc2CO[C@H]2CCNC2)c1` [Example D-67, (S)-3-(4-Fluoro-3′,5′-dimethyl-biphenyl-2-ylmethoxy)-pyrrolidine], the values for the inhibition constant (Ki) in experiment [1] and in experiment [2] were 377 nM and 116 nM, respectively.

With `Cc1cc(-c2ccc(F)cc2CO[C@H]2CCNC2)ccc1F` [Example D-94, (S)-3-(4,4′-Difluoro-3′-methyl-biphenyl-2-ylmethoxy)-pyrrolidine], the results for the inhibitory constant (Ki) in experiment [1] and in experiment [2] were 102 nM and 88.4 nM, respectively.

As for `c1ccc(COc2ccccc2-c2ccccc2CO[C@H]2CCNC2)cc1` [Example D-48, (S)-3-(2′-Benzyloxy-biphenyl-2-ylmethoxy)-pyrrolidine], the Ki is 4180 nM in experiment [1] and at least 10000 nM in experiment [2].

As for `COc1ccc(-c2ccccc2CO[C@H]2CCNC2)cc1` [Example D-28, (S)-3-(4′-Methoxy-biphenyl-2-ylmethoxy)-pyrrolidine], the Ki in experiment [1] was determined as 301 nM; in experiment [2], 1100 nM.

As to `Clc1ccc(-c2ccccc2CO[C@H]2CCNC2)cc1` [Example D-12, (S)-3-(4′-Chloro-biphenyl-2-ylmethoxy)-pyrrolidine], the inhibitory constant (Ki) in experiment [1] was 41.6 nM; in experiment [2], 101 nM.

Take `COc1ccc(-c2ccccc2CO[C@H]2CCNC2)cc1C` [Example D-2, (S)-3-(4′-Methoxy-3′-methyl-biphenyl-2-ylmethoxy)-pyrrolidine]: the inhibition constant (Ki) in experiment [1] was determined as 8.42 nM; in experiment [2], 261 nM.

`c1cncc(-c2ccccc2CO[C@H]2CCNC2)c1` [Example A-27, (S)-3-[2-(Pyrrolidin-3-yloxymethyl)-phenyl]-pyridine hydrochloride]: the Ki in experiment [1] is 2210 nM; in experiment [2], 211 nM.

Consider `Cc1cc(F)ccc1-c1ccccc1CO[C@H]1CCNC1` [Example A-12, (S)-3-(4′-Fluoro-2′-methyl-biphenyl-2-ylmethoxy)-pyrrolidine hydrochloride], for which the inhibitory constant (Ki) in experiment [1] was 50 nM.

On to `Cc1ccc(C)c(-c2ccccc2CO[C@H]2CCNC2)c1` [Example D-23, (S)-3-(2′,5′-Dimethyl-biphenyl-2-ylmethoxy)-pyrrolidine], for which, in experiment [2], the inhibition constant Ki was 154 nM.

As for `CCc1ccc(-c2ccccc2CO[C@H]2CCNC2)cc1` [Example D-39, (S)-(4′-Ethyl-biphenyl-2-ylmethoxy)-pyrrolidine], in experiment [2], the inhibitory constant (Ki) came to 528 nM.
